The values that follow come from article PMC3877268, “Reconstructed Ancestral Myo-Inositol-3-Phosphate Synthases Indicate That Ancestors of the Thermococcales and Thermotoga Species Were More Thermophilic than Their Descendants” (PLoS ONE, 2013).

Holding throughout (assay): periodate / malachite green phosphate assay, Lineweaver-Burk
Common to all, as to assay type: biochemical, synthetic construct

One assay concerns T1, AAM_A1.
T1 construct: gene by GenScript, pBAD TOPO, E. coli TOP10
Particulars: 15 mM NH4Cl, 10 mM imidazole-HCl pH 7.8, 99 °C (Topt). The text has this: periodate / malachite green phosphate assay, Lineweaver-Burk on AAM_A1

In the next assay the test system is T2, ACM_C1.
T2 construct: gene by GenScript, pBAD TOPO, E. coli TOP10
The note with it: 15 mM NH4Cl, 10 mM imidazole-HCl pH 7.8, 95 °C (Topt). The text has this: periodate / malachite green phosphate assay, Lineweaver-Burk on ACM_C1

A further assay has as its system T3, ATM_T3.
T3 construct: reconstructed node T ancestor, one of four (125/126 Ser/Lys or Thr/Glu); gene by GenScript, pBAD TOPO, E. coli TOP10
Particulars: 15 mM NH4Cl, 10 mM imidazole-HCl pH 7.8, 85 °C (Topt). The source says:
periodate / malachite green phosphate assay, Lineweaver-Burk on ATM_T3

The test system of another assay is T4, ACM_C2.
T4 construct: gene by GenScript, pBAD TOPO, E. coli TOP10
The note with it: 15 mM NH4Cl, 10 mM imidazole-HCl pH 7.8, 95 °C (Topt). The source says:
periodate / malachite green phosphate assay, Lineweaver-Burk on ACM_C2

The subject of a further assay is T5, ATM_T4.
T5 construct: reconstructed node T ancestor, one of four (125/126 Ser/Lys or Thr/Glu); gene by GenScript, pBAD TOPO, E. coli TOP10
The note with it: 15 mM NH4Cl, 10 mM imidazole-HCl pH 7.8, 83 °C (Topt). The text has this:
periodate / malachite green phosphate assay, Lineweaver-Burk on ATM_T4

In the next assay the test system is T6, ATM_T2.
T6 construct: reconstructed node T ancestor, one of four (125/126 Ser/Lys or Thr/Glu); gene by GenScript, pBAD TOPO, E. coli TOP10
The note with it: 15 mM NH4Cl, 10 mM imidazole-HCl pH 7.8, 83 °C (Topt). The source says:
periodate / malachite green phosphate assay, Lineweaver-Burk on ATM_T2

Another assay deals with T7, AAM_A2.
T7 construct: gene by GenScript, pBAD TOPO, E. coli TOP10
Particulars: 15 mM NH4Cl, 10 mM imidazole-HCl pH 7.8, 99 °C (Topt). The source says:
periodate / malachite green phosphate assay, Lineweaver-Burk on AAM_A2

Another assay deals with T8, ATM_T1.
T8 construct: reconstructed node T ancestor, one of four (125/126 Ser/Lys or Thr/Glu); gene by GenScript, pBAD TOPO, E. coli TOP10
The note with it: 15 mM NH4Cl, 10 mM imidazole-HCl pH 7.8, 90 °C (Topt). The text has this:
periodate / malachite green phosphate assay, Lineweaver-Burk on ATM_T1

With `O=P(O)(O)OC[C@H]1OC(O)[C@H](O)[C@@H](O)[C@@H]1O` (some centres unmarked) [glucose-6-phosphate], the Km (commonly the substrate concentration at which the rate is half of its maximum) came to 2770 ± 600 µM in the assay on AAM_A1; 2340 ± 460 µM in the assay on ACM_C1; 540 ± 150 µM in the assay on ATM_T3; 6270 ± 1940 µM with ACM_C2; 600 ± 60 µM with ATM_T4; 460 ± 80 µM in the assay on ATM_T2. In addition, the Km in the assay with AAM_A2 worked out at 1320 ± 110 µM; in the assay on ATM_T1, 630 ± 100 µM.
